Organism: Rattus norvegicus
Test: Open TG-GATES - Regimen: Single
Assay type: toxicity, organism-based, Sprague-Dawley
Set-up: regimen Single, gender Male, age 6 weeks
Conditions: in vivo, po, route gavage; for APTT / Bas / Eos / Fbg / Hb / Ht / Lym / MCH / MCHC / MCV / Mono / Neu / PT / Plat / RBC / Ret / WBC: tissue Blood; for KIDNEY_L / KIDNEY_R / KIDNEY_TOTAL: tissue Kidney; for ALP / ALT / AST / CRE / Cl / DBIL / GLC / IP / K / LDH / Na / PL / RALB / TBIL / TC / TG / TP / gamma-GTP: tissue Plasma

COc1cc2c(c(OC)c1OC)-c1ccc(OC)c(=O)cc1[C@@H](NC(C)=O)CC2 [COLCHICINE]
APTT (2 mg/kg, 9 h, dose level Low): 16.2 s | Bas (2 mg/kg, 9 h, dose level Low): 0% | Eos (2 mg/kg, 9 h, dose level Low): 0.8% | Fbg (2 mg/kg, 9 h, dose level Low): 212.4 mg/dL | Hb (2 mg/kg, 9 h, dose level Low): 12.9 g/dL | Ht (2 mg/kg, 9 h, dose level Low): 39% | Lym (2 mg/kg, 9 h, dose level Low): 72.2% | MCH (2 mg/kg, 9 h, dose level Low): 21.2 pg | MCHC (2 mg/kg, 9 h, dose level Low): 33.1% | MCV (2 mg/kg, 9 h, dose level Low): 64.1 fL | Mono (2 mg/kg, 9 h, dose level Low): 11.8% | Neu (2 mg/kg, 9 h, dose level Low): 15.6% | PT (2 mg/kg, 9 h, dose level Low): 11.7 s | Plat (2 mg/kg, 9 h, dose level Low): 114.1 x10_4/uL | RBC (2 mg/kg, 9 h, dose level Low): 609.6 x10_4/ul | Ret (2 mg/kg, 9 h, dose level Low): 9.8% | WBC (2 mg/kg, 9 h, dose level Low): 101.3 x10_2/uL | KIDNEY_L (2 mg/kg, 9 h, dose level Low): 1 g | KIDNEY_R (2 mg/kg, 9 h, dose level Low): 1 g | KIDNEY_TOTAL (2 mg/kg, 9 h, dose level Low): 2 g | ALP (2 mg/kg, 9 h, dose level Low): 888 IU/L | ALT (2 mg/kg, 9 h, dose level Low): 47.6 IU/L | AST (2 mg/kg, 9 h, dose level Low): 93.4 IU/L | CRE (2 mg/kg, 9 h, dose level Low): 0.5 mg/dL | Cl (2 mg/kg, 9 h, dose level Low): 105.2 meq/L | DBIL (2 mg/kg, 9 h, dose level Low): 0.072 mg/dL | GLC (2 mg/kg, 9 h, dose level Low): 189.2 mg/dL | IP (2 mg/kg, 9 h, dose level Low): 9.4 mg/dL | K (2 mg/kg, 9 h, dose level Low): 4.8 meq/L | LDH (2 mg/kg, 9 h, dose level Low): 115 IU/L | Na (2 mg/kg, 9 h, dose level Low): 137.4 meq/L | PL (2 mg/kg, 9 h, dose level Low): 130 mg/dL | RALB (2 mg/kg, 9 h, dose level Low): 3.7 g/dL | TBIL (2 mg/kg, 9 h, dose level Low): 0.4 mg/dL | TC (2 mg/kg, 9 h, dose level Low): 80.4 mg/dL | TG (2 mg/kg, 9 h, dose level Low): 36.2 mg/dL | TP (2 mg/kg, 9 h, dose level Low): 5.4 g/dL | gamma-GTP (2 mg/kg, 9 h, dose level Low): 1.4 IU/L | TERMINAL_BW (2 mg/kg, 24 h, dose level Low): 231.9 g | APTT (2 mg/kg, 24 h, dose level Low): 17.8 s | Bas (2 mg/kg, 24 h, dose level Low): 0% | Eos (2 mg/kg, 24 h, dose level Low): 1% | Fbg (2 mg/kg, 24 h, dose level Low): 213 mg/dL | Hb (2 mg/kg, 24 h, dose level Low): 12.8 g/dL | Ht (2 mg/kg, 24 h, dose level Low): 38.5% | Lym (2 mg/kg, 24 h, dose level Low): 79.6% | MCH (2 mg/kg, 24 h, dose level Low): 22.1 pg | MCHC (2 mg/kg, 24 h, dose level Low): 33.3% | MCV (2 mg/kg, 24 h, dose level Low): 66.4 fL | Mono (2 mg/kg, 24 h, dose level Low): 7.6% | Neu (2 mg/kg, 24 h, dose level Low): 11.8% | PT (2 mg/kg, 24 h, dose level Low): 11.3 s | Plat (2 mg/kg, 24 h, dose level Low): 108 x10_4/uL | RBC (2 mg/kg, 24 h, dose level Low): 580.6 x10_4/ul | Ret (2 mg/kg, 24 h, dose level Low): 9.1% | WBC (2 mg/kg, 24 h, dose level Low): 127.4 x10_2/uL | KIDNEY_L (2 mg/kg, 24 h, dose level Low): 1.1 g | KIDNEY_R (2 mg/kg, 24 h, dose level Low): 1.1 g | KIDNEY_TOTAL (2 mg/kg, 24 h, dose level Low): 2.1 g | ALP (2 mg/kg, 24 h, dose level Low): 972.6 IU/L | ALT (2 mg/kg, 24 h, dose level Low): 37.2 IU/L | AST (2 mg/kg, 24 h, dose level Low): 69 IU/L | CRE (2 mg/kg, 24 h, dose level Low): 0.6 mg/dL | Cl (2 mg/kg, 24 h, dose level Low): 103.4 meq/L | DBIL (2 mg/kg, 24 h, dose level Low): 0.05 mg/dL | GLC (2 mg/kg, 24 h, dose level Low): 201.2 mg/dL | IP (2 mg/kg, 24 h, dose level Low): 6.6 mg/dL | K (2 mg/kg, 24 h, dose level Low): 4.4 meq/L | LDH (2 mg/kg, 24 h, dose level Low): 113 IU/L | Na (2 mg/kg, 24 h, dose level Low): 139 meq/L | PL (2 mg/kg, 24 h, dose level Low): 156.6 mg/dL | RALB (2 mg/kg, 24 h, dose level Low): 3.8 g/dL | TBIL (2 mg/kg, 24 h, dose level Low): 0.4 mg/dL | TC (2 mg/kg, 24 h, dose level Low): 83.6 mg/dL | TG (2 mg/kg, 24 h, dose level Low): 125.8 mg/dL | TP (2 mg/kg, 24 h, dose level Low): 5.7 g/dL | gamma-GTP (2 mg/kg, 24 h, dose level Low): 1 IU/L | TERMINAL_BW (5 mg/kg, 3 h, dose level Middle): 224.6 g
